In patent publication US20260217673A1, “NOVEL COMPOUND AS RON INHIBITOR” (LG CHEM, LTD., priority 2022, published 2026):

Experiments:
[1] = biological target: RON (Homo sapiens, UniProt Q04912); assay: RON inhibitory activity, TR-FRET kinase assay; format: biochemical; settings: RON protein, ULight-labeled Poly GT substrate
Procedure: To measure the RON inhibitory activity of the example compounds, the IC50 of the compounds was measured using time-resolved fluorescence energy transfer (TR-FRET).
Specifically, the compound was prepared at a concentration of 1 mM with 100% DMSO and serially diluted 10 times through 3-fold dilution. 2 μl of the serially diluted compound was added to a 96-well plate containing 48 μl of 1× kinase reaction buffer (50 mM HEPES (pH 7.4), 0.01% Tween-20, 5 mM DTT, 0.5 mM Na3VO4, 2 mM EGTA, 10 mM MgCl2).
The RON protein was diluted with a RON storage buffer (50 mM Tris-HCl (pH 7.5), 150 mM NaCl, 0.5 mM EDTA, 0.02% Triton X-100) to a concentration of 49.3 nM, and then diluted again with 1× kinase reaction buffer to be 0.4 nM. As a substrate cocktail, a RON-specific substrate mixture (40 μM ULight-labeled Poly GT, 100 nM ATP) was prepared at a concentration twice the final reaction concentration.
(§1) After that, a 384-well plate was prepared, and 2.5 μl of the diluted example compound was added to each of the experimental group wells, and 2.5 μl of a 4% DMSO solution was dispensed into high control wells and low control wells.
(§2) Afterward, 2.5 μl of 0.4 nM RON was dispensed into the high control wells and the experimental group wells, and 2.5 μl of 1× kinase reaction buffer was added to the low control wells, and after centrifugation at 1000 RPM for 40 seconds at room temperature, the mixtures were incubated at room temperature for 20 to 30 minutes. Then, 5 μl of the substrate cocktail (2×) was dispensed into all wells, and after centrifugation at 1000 RPM for 40 seconds at room temperature, the mixtures were incubated at room temperature for 60 minutes. Afterward, 5 μl of 30 mM EDTA was added to all wells to terminate the reaction, and the mixtures were incubated again at room temperature for 5 minutes. Thereafter, 5 μl of 4× phosphotyrosine antibodies (Perkin Elmer) containing europium was added to all wells and incubated at room temperature for 60 minutes. After the incubation, the 384-well-plate was read with a Vison plate reader. At this time, the excitation wavelength was 340 nm, and the emission wavelengths were 620 nm and 665 nm. The IC50 value of each example compound was derived using the GraphPd Prism7 program.

[2] = biological target: cMET (Homo sapiens, UniProt P08581); assay: MET (cMET) enzyme inhibitory activity, TR-FRET kinase assay; format: biochemical; settings: cMET protein, TK peptide substrate
Sequence of cMET (P08581 25-1390): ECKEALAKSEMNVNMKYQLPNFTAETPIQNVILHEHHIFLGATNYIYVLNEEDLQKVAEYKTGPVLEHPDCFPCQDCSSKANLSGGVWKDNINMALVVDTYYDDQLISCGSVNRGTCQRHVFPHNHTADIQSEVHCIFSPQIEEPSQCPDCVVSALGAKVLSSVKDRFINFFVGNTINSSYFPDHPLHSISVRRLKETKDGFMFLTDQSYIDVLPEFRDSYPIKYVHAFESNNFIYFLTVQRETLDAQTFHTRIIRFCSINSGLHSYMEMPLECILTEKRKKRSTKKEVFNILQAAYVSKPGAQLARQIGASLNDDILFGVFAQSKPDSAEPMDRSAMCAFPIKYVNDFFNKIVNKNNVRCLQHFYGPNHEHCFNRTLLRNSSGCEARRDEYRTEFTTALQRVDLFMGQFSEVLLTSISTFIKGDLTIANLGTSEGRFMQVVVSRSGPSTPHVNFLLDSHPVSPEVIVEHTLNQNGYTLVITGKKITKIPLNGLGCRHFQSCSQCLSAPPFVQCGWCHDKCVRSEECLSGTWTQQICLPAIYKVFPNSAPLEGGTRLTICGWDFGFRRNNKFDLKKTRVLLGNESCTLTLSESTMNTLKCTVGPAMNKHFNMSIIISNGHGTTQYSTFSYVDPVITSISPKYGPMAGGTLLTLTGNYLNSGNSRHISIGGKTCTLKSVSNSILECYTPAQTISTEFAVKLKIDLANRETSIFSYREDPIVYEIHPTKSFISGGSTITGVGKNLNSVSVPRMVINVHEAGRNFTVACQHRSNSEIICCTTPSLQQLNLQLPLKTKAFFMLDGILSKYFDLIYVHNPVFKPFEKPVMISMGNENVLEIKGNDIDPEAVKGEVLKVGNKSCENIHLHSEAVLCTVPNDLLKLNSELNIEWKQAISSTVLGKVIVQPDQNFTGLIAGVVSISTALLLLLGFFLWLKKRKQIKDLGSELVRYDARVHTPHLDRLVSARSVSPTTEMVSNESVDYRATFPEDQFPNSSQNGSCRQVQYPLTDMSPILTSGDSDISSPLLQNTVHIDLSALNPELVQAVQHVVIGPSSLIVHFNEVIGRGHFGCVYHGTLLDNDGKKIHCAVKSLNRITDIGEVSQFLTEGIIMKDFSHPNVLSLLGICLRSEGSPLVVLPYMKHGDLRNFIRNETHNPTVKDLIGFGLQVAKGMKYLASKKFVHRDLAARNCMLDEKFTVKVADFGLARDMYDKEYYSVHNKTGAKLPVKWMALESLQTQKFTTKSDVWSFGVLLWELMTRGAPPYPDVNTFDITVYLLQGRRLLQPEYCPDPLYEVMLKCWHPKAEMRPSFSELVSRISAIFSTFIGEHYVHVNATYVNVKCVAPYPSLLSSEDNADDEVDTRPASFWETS
Procedure: In addition, to measure cMET enzyme activity inhibition, an experiment was performed by the same method as the experiment for measuring the RON enzyme activity inhibition.
Specifically, the compound was prepared at a concentration of 1 mM with 100% DMSO and serially diluted 10 times through 3-fold dilution. 2 μl of the serially diluted compound was added to a 96-well plate containing 48 μl 1× kinase reaction buffer (50 mM HEPES (pH 7.4), 0.05% BSA, 0.005% Tween-20, 1 mM DTT, 0.5 mM MnCl2, 20 mM MgCl2).
The cMET protein was diluted in a cMET storage buffer (50 mM Tris-HCl (pH 7.5), 150 mM NaCl, 0.05% Brij35, 1 mM DTT, 10% glycerol) to a concentration of 263 nM, and then diluted again with 1× kinase reaction buffer to 2 nM. As a substrate cocktail, a MET-specific substrate mixture (5 μM TK peptide, 10 mM ATP) was prepared at a concentration twice the final reaction concentration.
as §1
as §2, with “μl of 2 nM cMET” for “μl of 0.4 nM RON”, “2 nM cMET was dispensed” for “0.4 nM RON was dispensed”, “was dispensed to the high” for “was dispensed into the high”, “μl of 90 mM EDTA” for “μl of 30 mM EDTA”

Sequence of RON (Q04912 25-1400, species assumed): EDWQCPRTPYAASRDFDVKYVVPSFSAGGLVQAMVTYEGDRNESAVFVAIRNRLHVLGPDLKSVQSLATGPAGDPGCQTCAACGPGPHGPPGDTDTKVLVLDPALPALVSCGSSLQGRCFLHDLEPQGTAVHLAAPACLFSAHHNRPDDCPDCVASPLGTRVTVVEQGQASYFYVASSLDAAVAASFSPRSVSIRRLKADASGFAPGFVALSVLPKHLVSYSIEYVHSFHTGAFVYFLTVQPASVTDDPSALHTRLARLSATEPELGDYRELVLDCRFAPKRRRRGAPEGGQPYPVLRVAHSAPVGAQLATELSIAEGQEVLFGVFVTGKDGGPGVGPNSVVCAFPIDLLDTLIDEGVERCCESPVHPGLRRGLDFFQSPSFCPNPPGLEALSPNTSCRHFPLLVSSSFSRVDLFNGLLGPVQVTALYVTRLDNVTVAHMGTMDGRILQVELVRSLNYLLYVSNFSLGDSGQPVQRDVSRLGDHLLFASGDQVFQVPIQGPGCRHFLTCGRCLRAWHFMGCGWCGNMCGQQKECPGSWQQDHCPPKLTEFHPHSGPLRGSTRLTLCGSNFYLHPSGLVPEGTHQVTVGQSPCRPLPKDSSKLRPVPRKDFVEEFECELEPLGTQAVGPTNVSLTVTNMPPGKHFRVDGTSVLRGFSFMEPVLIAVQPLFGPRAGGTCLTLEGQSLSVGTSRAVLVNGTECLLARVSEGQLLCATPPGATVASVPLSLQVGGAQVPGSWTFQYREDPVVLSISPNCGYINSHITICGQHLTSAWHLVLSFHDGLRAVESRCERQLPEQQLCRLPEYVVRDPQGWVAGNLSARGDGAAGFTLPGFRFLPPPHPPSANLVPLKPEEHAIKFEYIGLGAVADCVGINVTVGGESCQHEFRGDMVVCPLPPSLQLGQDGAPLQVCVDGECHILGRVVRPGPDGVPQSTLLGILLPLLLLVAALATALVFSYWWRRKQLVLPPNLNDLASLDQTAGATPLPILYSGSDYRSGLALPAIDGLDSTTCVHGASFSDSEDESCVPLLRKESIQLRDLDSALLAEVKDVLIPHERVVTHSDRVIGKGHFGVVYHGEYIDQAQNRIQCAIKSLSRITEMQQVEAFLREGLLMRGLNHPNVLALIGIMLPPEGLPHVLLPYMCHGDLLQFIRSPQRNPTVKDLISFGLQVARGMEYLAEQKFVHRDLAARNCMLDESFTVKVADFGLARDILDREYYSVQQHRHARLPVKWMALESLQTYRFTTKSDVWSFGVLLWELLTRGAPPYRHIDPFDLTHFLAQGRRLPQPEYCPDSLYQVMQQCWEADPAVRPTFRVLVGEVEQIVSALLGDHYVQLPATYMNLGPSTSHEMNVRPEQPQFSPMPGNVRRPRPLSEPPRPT

| SMILES | IC50 [1] | IC50 [2] |
| --- | --- | --- |
| Nc1nccc(Oc2c(F)cc(NC(=O)c3cnn(-c4ncccc4Cl)c3C(F)(F)F)cc2F)c1C1CCOCC1 [Example 21, N-(4-((2-amino-3-(tetrahydro-2H-pyran-4-yl)pyridin-4-yl)oxy)-3,5-difluorophenyl)-1-(3-chloropyridin-2-yl)-5-(trifluoromethyl)-1H-pyrazole-4-carboxamide] | < 50 nM | 50 to 500 nM |
| Nc1nccc(Oc2c(F)cc(NC(=O)c3cnn(-c4ncccn4)c3C(F)(F)F)cc2F)c1C1CCOCC1 [Example 22, N-(4-((2-amino-3-(tetrahydro-2H-pyran-4-yl)pyridin-4-yl)oxy)-3,5-difluorophenyl)-1-(pyrimidin-2-yl)-5-(trifluoromethyl)-1H-pyrazole-4-carboxamide] | < 50 nM | 500 to 5000 nM |
| Nc1nccc(Oc2c(F)cc(NC(=O)c3cnn(-c4cccnn4)c3C(F)(F)F)cc2F)c1C1CCOCC1 [Example 23, N-(4-((2-amino-3-(tetrahydro-2H-pyran-4-yl)pyridin-4-yl)oxy)-3,5-difluorophenyl)-1-(pyridazin-3-yl)-5-(trifluoromethyl)-1H-pyrazole-4-carboxamide] | < 50 nM | 500 to 5000 nM |
| Nc1nccc(Oc2c(F)cc(NC(=O)c3cnn(-c4ccccn4)c3C(F)(F)F)cc2F)c1C1CCOCC1 [Example 24, N-(4-((2-amino-3-(tetrahydro-2H-pyran-4-yl)pyridin-4-yl)oxy)-3,5-difluorophenyl)-1-(pyridin-2-yl)-5-(trifluoromethyl)-1H-pyrazole-4-carboxamide] | < 50 nM | 500 to 5000 nM |
| C#Cc1c(Oc2c(F)cc(NC(=O)c3cnn(-c4ccccc4)c3C(F)(F)F)cc2F)ccnc1N [Example 25, N-(4-((2-amino-3-ethynylpyridin-4-yl)oxy)-3,5-difluorophenyl)-1-phenyl-5-(trifluoromethyl)-1H-pyrazole-4-carboxamide] | < 50 nM | 500 to 5000 nM |
| C#Cc1c(Oc2c(F)cc(NC(=O)c3cnn(-c4ncccc4F)c3C(F)(F)F)cc2F)ccnc1N [Example 26, N-(4-((2-amino-3-ethynylpyridin-4-yl)oxy)-3,5-difluorophenyl)-1-(3-fluoropyridin-2-yl)-5-(trifluoromethyl)-1H-pyrazole-4-carboxamide] | < 50 nM | 500 to 5000 nM |
| C#Cc1c(Oc2c(F)cc(NC(=O)c3cnn(-c4ncccc4Cl)c3C(F)(F)F)cc2F)ccnc1N [Example 27, N-(4-((2-amino-3-ethynylpyridin-4-yl)oxy)-3,5-difluorophenyl)-1-(3-chloropyridin-2-yl)-5-(trifluoromethyl)-1H-pyrazole-4-carboxamide] | < 50 nM | 50 to 500 nM |
| C#Cc1c(Oc2c(F)cc(NC(=O)c3cnn(-c4ncccn4)c3C(F)(F)F)cc2F)ccnc1N [Example 28, N-(4-((2-amino-3-ethynylpyridin-4-yl)oxy)-3,5-difluorophenyl)-1-(pyrimidin-2-yl)-5-(trifluoromethyl)-1H-pyrazole-4-carboxamide] | < 50 nM | 500 to 5000 nM |
| C#Cc1c(Oc2c(F)cc(NC(=O)c3cnn(-c4ccccn4)c3C(F)(F)F)cc2F)ccnc1N [Example 29, N-(4-((2-amino-3-ethynylpyridin-4-yl)oxy)-3,5-difluorophenyl)-1-(pyridin-2-yl)-5-(trifluoromethyl)-1H-pyrazole-4-carboxamide] | < 50 nM | 500 to 5000 nM |
| C#Cc1c(Oc2c(F)cc(NC(=O)c3cnn(-c4cccnn4)c3C(F)(F)F)cc2F)ccnc1N [Example 30, N-(4-((2-amino-3-ethynylpyridin-4-yl)oxy)-3,5-difluorophenyl)-1-(pyridazin-3-yl)-5-(trifluoromethyl)-1H-pyrazole-4-carboxamide] | < 50 nM | 500 to 5000 nM |
| N#Cc1c(Oc2c(F)cc(NC(=O)c3cnn(-c4ccccc4)c3C(F)(F)F)cc2F)ccnc1N [Example 31, N-(4-((2-amino-3-cyanopyridin-4-yl)oxy)-3,5-difluorophenyl)-1-phenyl-5-(trifluoromethyl)-1H-pyrazole-4-carboxamide] | < 50 nM | 500 to 5000 nM |
| N#Cc1c(Oc2c(F)cc(NC(=O)c3cnn(-c4ccccn4)c3C(F)(F)F)cc2F)ccnc1N [Example 32, N-(4-((2-amino-3-cyanopyridin-4-yl)oxy)-3,5-difluorophenyl)-1-(pyridin-2-yl)-5-(trifluoromethyl)-1H-pyrazole-4-carboxamide] | < 50 nM | 500 to 5000 nM |
| N#Cc1c(Oc2c(F)cc(NC(=O)c3cnn(-c4ncccc4F)c3C(F)(F)F)cc2F)ccnc1N [Example 33, N-(4-((2-amino-3-cyanopyridin-4-yl)oxy)-3,5-difluorophenyl)-1-(3-fluoropyridin-2-yl)-5-(trifluoromethyl)-1H-pyrazole-4-carboxamide] | < 50 nM | 50 to 500 nM |
| N#Cc1c(Oc2c(F)cc(NC(=O)c3cnn(-c4ncccc4Cl)c3C(F)(F)F)cc2F)ccnc1N [Example 34, N-(4-((2-amino-3-cyanopyridin-4-yl)oxy)-3,5-difluorophenyl)-1-(3-chloropyridin-2-yl)-5-(trifluoromethyl)-1H-pyrazole-4-carboxamide] | < 50 nM | 50 to 500 nM |
| N#Cc1c(Oc2c(F)cc(NC(=O)c3cnn(-c4ncccn4)c3C(F)(F)F)cc2F)ccnc1N [Example 35, N-(4-((2-amino-3-cyanopyridin-4-yl)oxy)-3,5-difluorophenyl)-1-(pyrimidin-2-yl)-5-(trifluoromethyl)-1H-pyrazole-4-carboxamide] | < 50 nM | 500 to 5000 nM |
| N#Cc1c(Oc2c(F)cc(NC(=O)c3cnn(-c4cccnn4)c3C(F)(F)F)cc2F)ccnc1N [Example 36, N-(4-((2-amino-3-cyanopyridin-4-yl)oxy)-3,5-difluorophenyl)-1-(pyridazin-3-yl)-5-(trifluoromethyl)-1H-pyrazole-4-carboxamide] | 50 to 500 nM | 500 to 5000 nM |
| Nc1nccc(Oc2c(F)cc(NC(=O)c3cnn(-c4ccccc4)c3C(F)(F)F)cc2F)c1C1CC1 [Example 37, N-(4-((2-amino-3-cyclopropylpyridin-4-yl)oxy)-3,5-difluorophenyl)-1-phenyl-5-(trifluoromethyl)-1H-pyrazole-4-carboxamide] | < 50 nM | 500 to 5000 nM |
| Nc1nccc(Oc2c(F)cc(NC(=O)c3cnn(-c4ncccc4F)c3C(F)(F)F)cc2F)c1C1CC1 [Example 38, N-(4-((2-amino-3-cyclopropylpyridin-4-yl)oxy)-3,5-difluorophenyl)-1-(3-fluoropyridin-2-yl)-5-(trifluoromethyl)-1H-pyrazole-4-carboxamide] | < 50 nM | 500 to 5000 nM |
| Nc1nccc(Oc2c(F)cc(NC(=O)c3cnn(-c4ncccc4Cl)c3C(F)(F)F)cc2F)c1C1CC1 [Example 39, N-(4-((2-amino-3-cyclopropylpyridin-4-yl)oxy)-3,5-difluorophenyl)-1-(3-chloropyridin-2-yl)-5-(trifluoromethyl)-1H-pyrazole-4-carboxamide] | < 50 nM | 500 to 5000 nM |
| Nc1nccc(Oc2c(F)cc(NC(=O)c3cnn(-c4ccccn4)c3C(F)(F)F)cc2F)c1C1CC1 [Example 40, N-(4-((2-amino-3-cyclopropylpyridin-4-yl)oxy)-3,5-difluorophenyl)-1-(pyridin-2-yl)-5-(trifluoromethyl)-1H-pyrazole-4-carboxamide] | < 50 nM | 500 to 5000 nM |
